The values below come from patent US9458128B2, “Catechol O-methyltransferase activity inhibiting compounds” (Orion Corporation, priority 2012, dated 2016).

Assay [1] is described as follows: Determination of levodopa concentration in rat plasma. The format is in vivo. Particulars: entacapone = 1.00, adult male Wistar rats, COMT inhibitor dosed orally with levodopa+carbidopa. Here is the method: Levodopa concentration in rat plasma was determined substantially as described in e.g. Kim, T. K. et al. European Journal of Pharmaceutical Sciences, 38 (2009) 525. The studies were performed in adult male Wistar rats. The COMT inhibitor was dosed orally over a range of doses and several sampling time points were chosen between 0 min and 300 min after drug administration (levodopa+carbidopa and COMT inhibitor). Blood samples were collected by cardiac puncture under CO2 anaesthesia into pre-cooled K2EDTA tubes and kept on ice until the separation of plasma by centrifugation. For levodopa analysis, 75 μl of separated plasma was pipetted without delay into pre-cooled polypropylene tubes containing a conserving agent. All the samples were stored at −80° C. nominal until analyzed. Plasma levels of levodopa were determined by LC-MS/MS (or HPLC). Standard pharmacokinetic methods were used to evaluate the concentration—time data by non-compartmental analysis modeling. The analyses were performed using WinNonlin® Professional v. 5.0.1.

Assay [2] deals with T1, recombinant human soluble COMT (S-COMT) (Homo sapiens, UniProt P21964).
T1 sequence (P21964 1-221 isoform P21964-2): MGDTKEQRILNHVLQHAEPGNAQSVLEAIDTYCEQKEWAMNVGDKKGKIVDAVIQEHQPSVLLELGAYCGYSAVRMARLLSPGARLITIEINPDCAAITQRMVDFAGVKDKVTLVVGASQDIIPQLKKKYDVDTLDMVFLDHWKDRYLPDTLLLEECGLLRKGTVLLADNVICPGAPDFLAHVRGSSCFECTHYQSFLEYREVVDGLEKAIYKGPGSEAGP
Put plainly: COMT inhibiting activity in vitro, Assay 1 (fluorescence plate reader). The format is biochemical. As to conditions: Assay 1: 12 nM S-COMT, 60 min preincubation at 37° C., substrate esculetin, Morrison equation. As to the method:
The inhibitory potency was determined by measuring recombinant human soluble COMT (S-COMT) activity at various compound concentrations. COMT activity measurements were performed according to the method published in Kurkela, M. et al. Analytical Biochemistry, 331 (2004) 198 with slight modifications according to Assay 1 or Assay 2 described below.
Recombinant human S-COMT (12 nM) was preincubated with the COMT inhibitor and 400 μM S-adenosyl-L-methionine in 100 mM Na2HPO4 buffer, pH 7.4, containing 5 mM MgCl2 for 60 min at 37° C. The reaction was started with the addition of the substrate esculetin for a final concentration of […] and the production of O-methylated esculetin was followed with the FlexStation fluorescence plate reader ([…], USA) using excitation at 355 nm and emission at 460 nm. The inhibitor dissociation constant, Ki, of the studied compounds was calculated using the Morrison equation, which takes the tight binding inhibition into account (Copeland, R. A. Evaluation of Enzyme Inhibitors in Drug Discovery. A Guide for Medicinal Chemists and Pharmacologists, John Wiley & Sons, Inc., Hoboken, N.J., 2005, pp. 185-187):
[formula] wherein v0 and vi are the reaction velocities in the absence and presence, respectively, of the inhibitor, E is the active enzyme concentration, and I is the inhibitor concentration. The data were analyzed with GraphPad Prism version 4.00 software (GraphPad Software, San Diego, Calif., USA). Assay 2

In general, Ki refers to a dissociation constant, usually derived from enzyme kinetics or from competition with a known ligand.

Take `CC(C)S(=O)(=O)c1ccc(-c2c(C#N)cc(O)c(O)c2C#N)cc1` [Example 23, 3,4-Dihydroxy-4′-(isopropylsulfonyl)biphenyl-2,6-dicarbonitrile]: the Relative levodopa concentration in assay [1] amounted to 1.34. Besides, in assay [2], the Ki turned out to be 0.19 nM.

Consider `C=CCc1c(C#N)cc(O)c(O)c1C#N` [Example 92, 2-Allyl-4,5-dihydroxyisophthalonitrile], for which the Relative levodopa concentration in assay [1] is 1.42.
